Read-outs that look alike come from different tables or passages of the source.
How the values were obtained:
Format in all cases: biochemical
ROCK = experiment: Kinase IC50 assay
CaMKIδ(h) = target: T1, CaMKIδ(h) (Homo sapiens, UniProt Q8IU85); experiment: Kinase panel
T1 construct: purchased Millipore KinaseProfiler

PKCβI(h) = target: T2, PKCβI(h) (Homo sapiens, UniProt P05771); experiment: Kinase panel
T2 construct: purchased Millipore KinaseProfiler

LIMK1(h) = target: T3, LIMK1(h) (Homo sapiens, UniProt P53667); experiment: Kinase panel
T3 construct: purchased Millipore KinaseProfiler

Arg(h) = target: T4, Arg(h) (Homo sapiens, UniProt P42684); experiment: Kinase panel
T4 construct: purchased Millipore KinaseProfiler

PKCη(h) = target: T5, PKCη(h) (Homo sapiens, UniProt P24723); experiment: Kinase panel
T5 construct: purchased Millipore KinaseProfiler

EGFR(T790M)(h) = target: T6, EGFR(T790M)(h) (Homo sapiens, UniProt P00533, T790M); experiment: Kinase panel
T6 construct: purchased Millipore KinaseProfiler

MST1(h) = target: T7, MST1(h) (Homo sapiens, UniProt Q13043); experiment: Kinase panel
T7 construct: purchased Millipore KinaseProfiler
T7 sequence (Q13043 1-487): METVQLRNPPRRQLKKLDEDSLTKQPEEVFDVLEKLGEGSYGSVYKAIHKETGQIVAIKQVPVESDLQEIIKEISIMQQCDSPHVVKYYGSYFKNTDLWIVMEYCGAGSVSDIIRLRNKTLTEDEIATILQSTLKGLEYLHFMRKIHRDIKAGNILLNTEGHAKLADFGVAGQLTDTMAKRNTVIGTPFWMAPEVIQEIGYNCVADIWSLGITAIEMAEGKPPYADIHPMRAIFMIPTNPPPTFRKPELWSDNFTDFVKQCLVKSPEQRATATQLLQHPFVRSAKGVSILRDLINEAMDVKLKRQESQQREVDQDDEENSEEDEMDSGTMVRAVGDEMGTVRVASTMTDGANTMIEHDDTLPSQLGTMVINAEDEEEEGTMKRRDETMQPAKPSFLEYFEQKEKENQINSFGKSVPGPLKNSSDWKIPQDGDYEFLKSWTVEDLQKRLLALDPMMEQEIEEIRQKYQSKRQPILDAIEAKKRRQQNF

Rsk1(r) = target: T8, Rsk1(r) (Rattus norvegicus, UniProt Q63531); experiment: Kinase panel
T8 construct: purchased Millipore KinaseProfiler

ZAP-70(h) = target: T9, ZAP-70(h) (Homo sapiens, UniProt P43403); experiment: Kinase panel
T9 construct: purchased Millipore KinaseProfiler
T9 sequence (P43403 1-619): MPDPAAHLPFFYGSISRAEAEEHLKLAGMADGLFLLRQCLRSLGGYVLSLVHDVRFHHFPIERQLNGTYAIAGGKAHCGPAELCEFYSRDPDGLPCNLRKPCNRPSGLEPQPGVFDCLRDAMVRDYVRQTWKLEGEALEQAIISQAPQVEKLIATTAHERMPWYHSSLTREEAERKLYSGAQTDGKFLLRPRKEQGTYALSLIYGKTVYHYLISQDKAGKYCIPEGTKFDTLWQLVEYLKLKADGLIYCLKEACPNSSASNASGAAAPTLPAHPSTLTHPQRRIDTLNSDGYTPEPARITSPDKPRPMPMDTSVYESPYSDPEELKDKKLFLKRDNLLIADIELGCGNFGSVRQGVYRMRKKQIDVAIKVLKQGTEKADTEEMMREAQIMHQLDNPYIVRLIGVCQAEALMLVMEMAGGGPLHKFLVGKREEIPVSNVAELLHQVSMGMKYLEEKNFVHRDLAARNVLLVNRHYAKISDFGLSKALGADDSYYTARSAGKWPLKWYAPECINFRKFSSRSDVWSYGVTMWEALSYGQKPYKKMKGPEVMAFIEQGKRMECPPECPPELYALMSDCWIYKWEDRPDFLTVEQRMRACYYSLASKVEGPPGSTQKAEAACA

eEF-2K(h) = target: T10, eEF-2K(h) (Homo sapiens, UniProt O00418); experiment: Kinase panel
T10 construct: purchased Millipore KinaseProfiler

PKCι = PKCι (Homo sapiens, UniProt P41743); experiment: Kinase IC50 assay
EGFR(L858R)(h) = target: T11, EGFR(L858R)(h) (Homo sapiens, UniProt P00533, L858R); experiment: Kinase panel
T11 construct: purchased Millipore KinaseProfiler

SIK(h) = target: T12, SIK(h) (Homo sapiens, UniProt P57059); experiment: Kinase panel
T12 construct: purchased Millipore KinaseProfiler

BrSK1(h) = target: T13, BrSK1(h) (Homo sapiens, UniProt Q8TDC3); experiment: Kinase panel
T13 construct: purchased Millipore KinaseProfiler
T13 sequence (Q8TDC3 1-778): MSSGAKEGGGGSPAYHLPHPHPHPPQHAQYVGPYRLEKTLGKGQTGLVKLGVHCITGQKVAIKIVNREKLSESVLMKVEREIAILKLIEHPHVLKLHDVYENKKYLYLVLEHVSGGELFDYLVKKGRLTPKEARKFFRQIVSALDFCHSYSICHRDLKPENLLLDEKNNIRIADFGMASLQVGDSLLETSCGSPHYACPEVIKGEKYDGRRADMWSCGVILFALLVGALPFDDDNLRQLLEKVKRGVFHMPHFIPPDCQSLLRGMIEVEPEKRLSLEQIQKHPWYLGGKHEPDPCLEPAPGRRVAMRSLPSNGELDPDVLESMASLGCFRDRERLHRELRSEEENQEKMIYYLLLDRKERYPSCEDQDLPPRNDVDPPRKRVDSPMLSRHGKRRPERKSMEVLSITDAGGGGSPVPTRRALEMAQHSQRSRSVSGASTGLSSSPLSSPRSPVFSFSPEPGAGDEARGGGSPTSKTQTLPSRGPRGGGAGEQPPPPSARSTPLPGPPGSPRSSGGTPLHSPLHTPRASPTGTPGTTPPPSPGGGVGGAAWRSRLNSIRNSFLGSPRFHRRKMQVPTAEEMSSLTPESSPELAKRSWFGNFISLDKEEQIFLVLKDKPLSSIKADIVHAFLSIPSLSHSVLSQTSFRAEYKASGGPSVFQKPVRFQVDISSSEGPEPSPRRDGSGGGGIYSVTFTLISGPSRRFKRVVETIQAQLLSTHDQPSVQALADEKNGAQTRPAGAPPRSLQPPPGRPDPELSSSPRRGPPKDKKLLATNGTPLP

T12 sequence (P57059 whole entry): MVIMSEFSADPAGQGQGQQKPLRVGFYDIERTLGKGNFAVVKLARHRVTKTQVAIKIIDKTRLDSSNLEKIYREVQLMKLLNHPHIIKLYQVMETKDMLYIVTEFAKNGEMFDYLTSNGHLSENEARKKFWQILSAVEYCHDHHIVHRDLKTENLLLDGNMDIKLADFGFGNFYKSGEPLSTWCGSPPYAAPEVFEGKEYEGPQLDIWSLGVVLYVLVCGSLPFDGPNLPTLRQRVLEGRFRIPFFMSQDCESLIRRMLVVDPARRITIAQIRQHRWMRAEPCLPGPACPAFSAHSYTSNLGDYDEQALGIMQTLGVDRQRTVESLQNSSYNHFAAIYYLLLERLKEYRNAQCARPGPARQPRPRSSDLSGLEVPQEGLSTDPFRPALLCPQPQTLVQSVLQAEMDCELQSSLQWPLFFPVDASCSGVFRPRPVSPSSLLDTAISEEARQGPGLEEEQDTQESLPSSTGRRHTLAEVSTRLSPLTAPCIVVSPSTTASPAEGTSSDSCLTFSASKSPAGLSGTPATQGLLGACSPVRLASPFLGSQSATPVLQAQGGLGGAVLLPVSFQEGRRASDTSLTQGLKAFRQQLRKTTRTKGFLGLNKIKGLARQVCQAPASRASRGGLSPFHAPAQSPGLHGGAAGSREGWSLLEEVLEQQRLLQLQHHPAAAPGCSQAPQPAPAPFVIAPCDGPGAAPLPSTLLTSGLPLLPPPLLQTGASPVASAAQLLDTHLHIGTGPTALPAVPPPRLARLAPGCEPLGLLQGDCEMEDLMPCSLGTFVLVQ
T8 sequence (Q63531 whole entry): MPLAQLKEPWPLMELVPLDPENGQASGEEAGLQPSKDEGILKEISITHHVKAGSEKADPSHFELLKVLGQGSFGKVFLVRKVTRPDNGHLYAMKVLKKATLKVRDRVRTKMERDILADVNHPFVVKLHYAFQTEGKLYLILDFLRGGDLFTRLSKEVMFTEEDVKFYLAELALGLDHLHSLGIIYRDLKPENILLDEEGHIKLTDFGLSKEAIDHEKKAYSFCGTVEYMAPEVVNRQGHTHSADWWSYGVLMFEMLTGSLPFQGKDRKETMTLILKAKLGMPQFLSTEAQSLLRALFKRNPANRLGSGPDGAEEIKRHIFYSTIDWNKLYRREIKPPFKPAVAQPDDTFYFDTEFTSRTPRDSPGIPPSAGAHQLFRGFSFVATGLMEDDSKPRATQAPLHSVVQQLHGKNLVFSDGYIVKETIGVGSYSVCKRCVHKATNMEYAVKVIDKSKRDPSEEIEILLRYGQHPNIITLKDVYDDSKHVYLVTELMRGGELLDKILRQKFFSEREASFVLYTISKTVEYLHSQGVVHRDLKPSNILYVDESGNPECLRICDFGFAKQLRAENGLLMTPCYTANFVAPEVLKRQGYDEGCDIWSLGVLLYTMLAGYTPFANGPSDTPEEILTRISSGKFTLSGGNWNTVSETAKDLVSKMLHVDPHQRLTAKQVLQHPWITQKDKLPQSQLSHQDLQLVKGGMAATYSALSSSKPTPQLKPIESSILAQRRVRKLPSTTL
T2 sequence (P05771 whole entry): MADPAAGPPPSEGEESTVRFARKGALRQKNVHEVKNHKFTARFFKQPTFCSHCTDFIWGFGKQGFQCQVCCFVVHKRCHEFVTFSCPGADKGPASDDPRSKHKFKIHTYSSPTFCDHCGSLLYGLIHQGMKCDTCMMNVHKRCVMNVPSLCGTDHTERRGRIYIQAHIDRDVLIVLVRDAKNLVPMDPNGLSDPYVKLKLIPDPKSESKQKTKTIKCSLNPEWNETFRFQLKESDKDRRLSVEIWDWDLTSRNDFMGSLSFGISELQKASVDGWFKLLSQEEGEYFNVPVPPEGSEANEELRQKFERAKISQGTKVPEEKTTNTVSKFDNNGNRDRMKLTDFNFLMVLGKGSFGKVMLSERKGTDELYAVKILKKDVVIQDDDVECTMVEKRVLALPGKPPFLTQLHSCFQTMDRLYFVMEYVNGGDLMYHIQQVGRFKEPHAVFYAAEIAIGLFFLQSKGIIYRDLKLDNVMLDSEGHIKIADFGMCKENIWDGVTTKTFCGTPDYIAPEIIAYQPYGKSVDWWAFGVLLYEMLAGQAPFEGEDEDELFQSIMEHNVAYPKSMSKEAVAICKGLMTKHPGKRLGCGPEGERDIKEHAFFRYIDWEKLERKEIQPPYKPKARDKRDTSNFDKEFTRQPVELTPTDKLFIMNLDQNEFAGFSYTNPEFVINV
T6 sequence (P00533 25-1210 T790M): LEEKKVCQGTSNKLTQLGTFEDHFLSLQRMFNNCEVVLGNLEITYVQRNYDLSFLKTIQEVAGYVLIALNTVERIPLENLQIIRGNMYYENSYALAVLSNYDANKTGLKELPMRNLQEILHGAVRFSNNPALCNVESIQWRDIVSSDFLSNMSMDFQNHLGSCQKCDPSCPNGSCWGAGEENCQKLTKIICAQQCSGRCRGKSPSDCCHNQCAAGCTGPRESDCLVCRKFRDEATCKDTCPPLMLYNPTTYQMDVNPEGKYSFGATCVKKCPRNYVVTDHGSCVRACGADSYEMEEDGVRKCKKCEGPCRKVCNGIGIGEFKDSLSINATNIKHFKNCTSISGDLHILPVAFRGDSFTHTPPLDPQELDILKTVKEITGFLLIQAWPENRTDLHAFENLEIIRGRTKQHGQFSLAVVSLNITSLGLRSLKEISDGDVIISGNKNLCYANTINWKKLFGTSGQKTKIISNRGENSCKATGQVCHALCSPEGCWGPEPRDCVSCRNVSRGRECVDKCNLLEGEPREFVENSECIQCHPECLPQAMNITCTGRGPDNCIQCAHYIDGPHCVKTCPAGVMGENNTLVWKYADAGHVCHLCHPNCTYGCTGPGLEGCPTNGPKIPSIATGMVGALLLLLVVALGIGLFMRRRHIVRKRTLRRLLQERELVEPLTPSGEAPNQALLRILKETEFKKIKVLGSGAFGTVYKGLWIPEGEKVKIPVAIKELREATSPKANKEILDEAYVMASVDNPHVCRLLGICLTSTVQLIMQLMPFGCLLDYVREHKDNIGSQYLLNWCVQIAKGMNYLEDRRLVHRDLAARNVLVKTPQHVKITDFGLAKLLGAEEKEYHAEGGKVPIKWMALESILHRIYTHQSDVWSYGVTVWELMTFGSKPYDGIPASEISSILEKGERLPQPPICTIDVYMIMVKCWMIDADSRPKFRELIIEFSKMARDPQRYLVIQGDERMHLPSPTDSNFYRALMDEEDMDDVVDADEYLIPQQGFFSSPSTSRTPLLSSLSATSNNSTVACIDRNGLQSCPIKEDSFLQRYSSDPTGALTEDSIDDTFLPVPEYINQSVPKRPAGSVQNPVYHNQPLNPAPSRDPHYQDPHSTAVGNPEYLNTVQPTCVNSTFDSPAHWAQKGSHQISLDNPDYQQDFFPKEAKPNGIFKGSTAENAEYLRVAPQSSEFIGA
T4 sequence (P42684 whole entry): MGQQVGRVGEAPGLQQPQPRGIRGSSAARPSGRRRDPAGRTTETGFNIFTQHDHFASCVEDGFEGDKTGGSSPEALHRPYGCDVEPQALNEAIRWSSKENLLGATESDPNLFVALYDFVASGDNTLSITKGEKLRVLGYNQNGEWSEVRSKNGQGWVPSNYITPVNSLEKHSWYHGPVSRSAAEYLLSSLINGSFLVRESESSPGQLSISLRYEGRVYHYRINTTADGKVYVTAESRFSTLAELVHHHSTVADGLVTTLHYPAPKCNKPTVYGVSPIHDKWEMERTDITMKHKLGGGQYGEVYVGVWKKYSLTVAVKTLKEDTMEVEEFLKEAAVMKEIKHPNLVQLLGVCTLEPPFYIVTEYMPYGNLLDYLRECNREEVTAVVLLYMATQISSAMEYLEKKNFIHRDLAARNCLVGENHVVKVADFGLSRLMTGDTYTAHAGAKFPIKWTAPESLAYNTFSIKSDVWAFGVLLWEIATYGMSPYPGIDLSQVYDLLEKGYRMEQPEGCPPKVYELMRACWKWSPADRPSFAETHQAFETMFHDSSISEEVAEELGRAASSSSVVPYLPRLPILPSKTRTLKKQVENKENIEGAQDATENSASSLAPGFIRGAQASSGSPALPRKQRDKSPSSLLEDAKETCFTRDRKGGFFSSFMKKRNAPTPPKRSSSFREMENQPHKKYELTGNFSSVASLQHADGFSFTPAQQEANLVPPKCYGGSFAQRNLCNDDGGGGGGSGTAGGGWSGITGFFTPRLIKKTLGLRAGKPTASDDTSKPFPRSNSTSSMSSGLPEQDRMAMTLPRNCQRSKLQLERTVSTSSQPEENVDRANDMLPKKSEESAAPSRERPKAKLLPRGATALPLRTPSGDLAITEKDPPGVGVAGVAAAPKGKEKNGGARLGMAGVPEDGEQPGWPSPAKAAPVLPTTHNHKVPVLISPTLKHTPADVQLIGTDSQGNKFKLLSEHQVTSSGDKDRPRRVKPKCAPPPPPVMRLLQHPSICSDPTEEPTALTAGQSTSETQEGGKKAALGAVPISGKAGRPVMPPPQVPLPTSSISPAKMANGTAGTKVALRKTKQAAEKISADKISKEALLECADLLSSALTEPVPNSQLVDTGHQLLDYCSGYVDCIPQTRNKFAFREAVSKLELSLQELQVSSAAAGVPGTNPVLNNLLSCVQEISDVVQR
T1 sequence (Q8IU85 whole entry): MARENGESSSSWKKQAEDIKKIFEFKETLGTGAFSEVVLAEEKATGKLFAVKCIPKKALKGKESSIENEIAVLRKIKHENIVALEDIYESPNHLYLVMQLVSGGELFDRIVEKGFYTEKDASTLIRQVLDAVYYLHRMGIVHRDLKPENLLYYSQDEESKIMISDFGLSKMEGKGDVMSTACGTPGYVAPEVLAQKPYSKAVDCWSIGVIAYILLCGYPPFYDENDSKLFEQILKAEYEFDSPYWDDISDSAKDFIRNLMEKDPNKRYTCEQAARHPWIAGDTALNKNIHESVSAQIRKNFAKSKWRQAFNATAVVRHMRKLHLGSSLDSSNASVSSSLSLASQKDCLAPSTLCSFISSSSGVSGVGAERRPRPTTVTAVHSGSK

Cn1ncc(Cl)c1-c1cc(C(=O)N[C@H](CN)Cc2cccc(F)c2)sc1Cl [GSK2110183]
IC50 (ROCK): 100 nM | inhibition at 0.5 µM (CaMKIδ(h)): 18% | inhibition at 10 µM (CaMKIδ(h)): 78% | inhibition at 0.5 µM (PKCβI(h)): 61% | inhibition at 10 µM (PKCβI(h)): 96% | inhibition at 0.5 µM (LIMK1(h)): 21% | inhibition at 10 µM (LIMK1(h)): 25% | inhibition at 0.5 µM (Arg(h)): -3% | inhibition at 10 µM (Arg(h)): -1% | inhibition at 0.5 µM (PKCη(h)): 78% | inhibition at 10 µM (PKCη(h)): 97% | inhibition at 0.5 µM (EGFR(T790M)(h)): -1% | inhibition at 10 µM (EGFR(T790M)(h)): 2% | inhibition at 0.5 µM (MST1(h)): -2% | inhibition at 10 µM (MST1(h)): 19% | inhibition at 0.5 µM (Rsk1(r)): 24% | inhibition at 10 µM (Rsk1(r)): 89% | inhibition at 0.5 µM (ZAP-70(h)): 8% | inhibition at 10 µM (ZAP-70(h)): -2% | inhibition at 0.5 µM (eEF-2K(h)): -3% | inhibition at 10 µM (eEF-2K(h)): 13% | IC50 (PKCι): > 1000 nM | inhibition at 0.5 µM (EGFR(L858R)(h)): 3% | inhibition at 10 µM (EGFR(L858R)(h)): 15% | inhibition at 0.5 µM (SIK(h)): -6% | inhibition at 10 µM (SIK(h)): 16% | inhibition at 0.5 µM (BrSK1(h)): -3% | inhibition at 10 µM (BrSK1(h)): 10%

Cn1ncc(Cl)c1-c1cc(C(=O)N[C@H](CN)Cc2ccc(F)c(F)c2)oc1Cl [GSK2141795]
IC50 (ROCK): 126 nM | inhibition at 0.5 µM (CaMKIδ(h); 0.5 µM, read-out: % Inhibition): 16% | inhibition at 10 µM (CaMKIδ(h); 10 µM, read-out: % Inhibition): 84% | inhibition at 0.5 µM (PKCβI(h); 0.5 µM, read-out: % Inhibition): 74% | inhibition at 10 µM (PKCβI(h); 10 µM, read-out: % Inhibition): 97% | inhibition at 0.5 µM (LIMK1(h); 0.5 µM, read-out: % Inhibition): 3% | inhibition at 10 µM (LIMK1(h); 10 µM, read-out: % Inhibition): 18% | inhibition at 0.5 µM (Arg(h); 0.5 µM, read-out: % Inhibition): -13% | inhibition at 10 µM (Arg(h); 10 µM, read-out: % Inhibition): -17% | inhibition at 0.5 µM (PKCη(h); 0.5 µM, read-out: % Inhibition): 86% | inhibition at 10 µM (PKCη(h); 10 µM, read-out: % Inhibition): 99% | inhibition at 0.5 µM (EGFR(T790M)(h); 0.5 µM, read-out: % Inhibition): -5% | inhibition at 10 µM (EGFR(T790M)(h); 10 µM, read-out: % Inhibition): 2% | inhibition at 0.5 µM (MST1(h); 0.5 µM, read-out: % Inhibition): -10% | inhibition at 10 µM (MST1(h); 10 µM, read-out: % Inhibition): 25% | inhibition at 0.5 µM (Rsk1(r); 0.5 µM, read-out: % Inhibition): 57% | inhibition at 10 µM (Rsk1(r); 10 µM, read-out: % Inhibition): 95% | inhibition at 0.5 µM (ZAP-70(h); 0.5 µM, read-out: % Inhibition): -23% | inhibition at 10 µM (ZAP-70(h); 10 µM, read-out: % Inhibition): -24% | inhibition at 0.5 µM (eEF-2K(h); 0.5 µM, read-out: % Inhibition): 4% | inhibition at 10 µM (eEF-2K(h); 10 µM, read-out: % Inhibition): 3% | IC50 (PKCι): > 1000 nM | inhibition at 0.5 µM (EGFR(L858R)(h); 0.5 µM, read-out: % Inhibition): 3% | inhibition at 10 µM (EGFR(L858R)(h); 10 µM, read-out: % Inhibition): 24% | inhibition at 0.5 µM (SIK(h); 0.5 µM, read-out: % Inhibition): -4% | inhibition at 10 µM (SIK(h); 10 µM, read-out: % Inhibition): 64% | inhibition at 0.5 µM (BrSK1(h); 0.5 µM, read-out: % Inhibition): -2% | inhibition at 10 µM (BrSK1(h); 10 µM, read-out: % Inhibition): 7%

Source: paper PMC4076210, “Discovery of Novel AKT Inhibitors with Enhanced Anti-Tumor Effects in Combination with the MEK Inhibitor” (PLoS ONE, 2014)
